Measurements published in patent US7960382B2, “Compounds and their use related to compositions for treating disease” (Allergan, Inc., priority 2005, dated 2011).

Experiments:
[1] = Formation of the compound in a brimonidine tartrate / timolol maleate composition stored at ambient temperature (age of composition); assay type: physicochemical; conditions: for Compound Concentration (% weight/vol): composition initially 0.2% brimonidine tartrate and 0.68% timolol maleate, pH 6.9, ambient temperature
Method: The compound disclosed herein can also be used to estimate the age of a composition, stored at ambient temperature, initially comprising brimonidine tartrate and timolol maleate of known amounts and having a pH of 6.9. The age of the […] (λ) in months is determined by equation 3, where B^o, T^o, and C^o are the initial concentrations of brimonidine, timolol maleate, and the compound respectively, in % (w/v). λ=C^o/(1.1×10^−3(B^oT^o)) [eq. 3] Equation 3 is an approximation which assumes that B^o and T^o>>C^o. If that is not the case, the age is determined using the rate constant k=1.1×10^−3 month^−1%^−1 and the appropriate rate expression.
If the composition initially comprises 0.2% brimonidine tartrate and 0.68% timolol maleate. The age of the composition may be determined according to Table 2 below. Alternatively, up to about 36 months, the age is determined by multiplying the concentration of the compound in % (w/v) by 9100.

[2] = test system: microbial attack; conditions: cited from earlier work
[3] = test system: microbial attack; experiment: Preservation of ophthalmic compositions from microbial attack; conditions: brimonidine/timolol compositions of the invention
Text: Ophthalmic products are typically packaged in multidose form. Preservatives are thus required to prevent microbial contamination during use. Suitable preservatives include: benzalkonium chloride, thimerosal, chlorobutanol, methyl paraben, propyl paraben, phenylethyl alcohol, edetate disodium, sorbic acid, Onamer M, or other agents known to those skilled in the art. In the prior art ophthalmic products, typically such preservatives are employed at a level of from 0.004% to 0.02%. In the compositions of the present application the preservative, preferably benzalkonium chloride, may be employed at a level of from 0.001% to less than 0.01%, e.g. from 0.001% to 0.008%, preferably about 0.005% by weight. […] This concentration may be advantageously compared to the requirement of 0.01% benzalkonium chloride to preserve timolol in the individual, commercially-available ophthalmic products.

O=C(O)C1CC(=O)N2CCN=C2N1c1ccc2nccnc2c1Br (stereo not drawn) [Compound, 8-(5-bromoquinoxalin-6-yl)-5-oxo-2,3,5,6,7,8-hexahydroimidazo[1,2-a]pyrimidine-7-carboxylic acid]
Compound Concentration (% weight/vol) ([1]; Age 1 month): 0.0001 % weight/vol
Compound Concentration (% weight/vol) ([1]; Age 2 months): 0.0002 % weight/vol
Compound Concentration (% weight/vol) ([1]; Age 3 months): 0.0003 % weight/vol
Compound Concentration (% weight/vol) ([1]; Age 4 months): 0.0004 % weight/vol
Compound Concentration (% weight/vol) ([1]; Age 5 months): 0.0006 % weight/vol
Compound Concentration (% weight/vol) ([1]; Age 6 months): 0.0007 % weight/vol
Compound Concentration (% weight/vol) ([1]; Age 7 months): 0.0008 % weight/vol
Compound Concentration (% weight/vol) ([1]; Age 8 months): 0.0009 % weight/vol
Compound Concentration (% weight/vol) ([1]; Age 9 months): 0.001 % weight/vol
Compound Concentration (% weight/vol) ([1]; Age 10 months): 0.0011 % weight/vol
Compound Concentration (% weight/vol) ([1]; Age 11 months): 0.0012 % weight/vol
Compound Concentration (% weight/vol) ([1]; Age 12 months): 0.0013 % weight/vol
Compound Concentration (% weight/vol) ([1]; Age 13 months): 0.0014 % weight/vol
Compound Concentration (% weight/vol) ([1]; Age 14 months): 0.0016 % weight/vol
Compound Concentration (% weight/vol) ([1]; Age 15 months): 0.0017 % weight/vol
Compound Concentration (% weight/vol) ([1]; Age 16 months): 0.0018 % weight/vol
Compound Concentration (% weight/vol) ([1]; Age 17 months): 0.0019 % weight/vol
Compound Concentration (% weight/vol) ([1]; Age 18 months): 0.0020 % weight/vol
Compound Concentration (% weight/vol) ([1]; Age 19 months): 0.0021 % weight/vol
Compound Concentration (% weight/vol) ([1]; Age 20 months): 0.0022 % weight/vol
Compound Concentration (% weight/vol) ([1]; Age 21 months): 0.0023 % weight/vol
Compound Concentration (% weight/vol) ([1]; Age 22 months): 0.0024 % weight/vol
Compound Concentration (% weight/vol) ([1]; Age 23 months): 0.0026 % weight/vol
Compound Concentration (% weight/vol) ([1]; Age 24 months): 0.0027 % weight/vol
rate constant k (formation of the compound from brimonidine tartrate and timolol maleate) ([1]; composition stored at ambient temperature, pH 6.9): 1.1×10^−3 month^−1%^−1

benzalkonium chloride
concentration required to preserve timolol in the individual, commercially-available ophthalmic products [2]: 0.01%
concentration sufficient to preserve the compositions of the present invention from microbial attack [3]: 0.005%
